US9555038B2, “Heterocycle-substituted tetracyclic compounds and methods of use thereof for the treatment of viral diseases” (Merck Sharp & Dohme Corp., priority 2013, dated 2017)
Like-named read-outs stand apart in the source and are kept apart here.

What was measured:
HCV replicon 2B = test: Cell-based HCV Replicon Assay A, replicon 2B
How it was run: (§1)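 Replicon cells were seeded at 2000 cells/well with test compound in 10 serial dilutions, starting at 333.3 nM to 1.667 nM, in 0.5% DMSO and 5% FBS. On day 3, cells were washed and lysed, and replicon RNA was quantified by multiplex TaqMan RT-PCR normalised to cyclophilin.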

HCV replicon 1AQ30D = test: Cell-based HCV Replicon Assay B, replicon 1AQ30D
Description: In an alternate assay (“Replicon Assay B”), 1000 cells were seeded per well in a 384-well collagen coated black plate from Greiner bio-one (Cat #781946) in 5% FBS. Inhibitors of this invention were added at 24 h post-seeding, and the plates were incubated for 3 days. Cells were subsequently lysed with Qiagen lysis buffer (Cat #1062731) to extract the RNA. HCV replicon RNA level was measured by real-time PCR using the RNA-to-CT kit from Applied Biosystem (Cat #4392656) and genotype-specific primers and probes. The amplicon was located within NS5B. The sequence of the PCR primers are as follows: 5B.2F, ATGGACAGGCGCCCTGA (SEQ. ID NO. 1); 5B.2R, […] (SEQ. ID NO. 2); the probe sequence was FAM-labeled CACGCCATGCGCTGCGG (SEQ. ID NO. 3). To detect genotype 1A the primer 1A F, TGCGGAACCGGTGAGTACA and 1A R, […] were used; the probe sequence was FAM-[…].
The real-time RT-PCR reactions were run on ABI PRISM 7900HT or Viia7 Sequence Detection System using the following program: 48° C. for 30 minutes, 95° C. for 10 minutes, 40 cycles of 95° C. for 15 sec, 60° C. for 1 minutes. The 50% effective concentration (EC50) was the drug concentration necessary to achieve an increase in the cycle threshold (CT) of 1 over the projected baseline CT.
Data was obtained for various compounds of the present invention using the methods described in the Example above, and is presented in the table immediately below. Data for replicons 1A, 1AY93H and 2B were obtained using Replicon Assay A and data for replicons 1AQ30D and 1B were obtained using Replicon Assay B.

HCV replicon 1A = test: Cell-based HCV Replicon Assay A, replicon 1A
How it was run: as §1

HCV replicon 1B = test: Cell-based HCV Replicon Assay B, replicon 1B
How it was run: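 Replicon cells seeded in 5% FBS; compounds added 24 h later, then 3 days' incubation. Replicon RNA quantified by real-time RT-PCR with genotype-specific primers/probes (NS5B amplicon for 1b). EC50 = concentration raising CT by 1 over projected baseline.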

HCV replicon 1AY93H = test: Cell-based HCV Replicon Assay A, replicon 1AY93H
How it was run: as §1

[1] = Hepatitis C virus, read-out: 2B IC50 (nM), replicon 2B
[2] = Hepatitis C virus, read-out: 1A Q30D IC50 (nM), replicon 1AQ30D
[3] = Hepatitis C virus, read-out: 1A Y93H IC50 (nM), replicon 1AY93H
[4] = read-out: 1A Y93H IC50, replicon 1AY93H
[5] = read-out: 1A Q30D IC50, replicon 1AQ30D

| SMILES | IC50 (HCV replicon 2B; [1]) [nM] | IC50 (HCV replicon 1AQ30D; [2]) [nM] | IC50 (HCV replicon 1A; Hepatitis C virus) [pM] | IC50 (HCV replicon 1B; Hepatitis C virus) [pM] | IC50 (HCV replicon 1AY93H; [3]) [nM] | IC50 (HCV replicon 2B; read-out: 2B IC50, replicon 2B) [nM] | IC50 (HCV replicon 1AY93H; [4]) [nM] | IC50 (HCV replicon 1A) [pM] | IC50 (HCV replicon 1AQ30D; [5]) [nM] | IC50 (HCV replicon 1B) [pM] |
| --- | --- | --- | --- | --- | --- | --- | --- | --- | --- | --- |
| COC(=O)N[C@H](C(=O)N1CCC[C@H]1c1ncc(-c2cc(F)c3c(c2)OC(c2cnc(-c4cnccn4)s2)n2c-3cc3cc(-c4cnc([C@@H]5CCCN5C(=O)[C@@H](NC(=O)OC)C(C)C)[nH]4)ccc32)[nH]1)C(C)C (mixture of isomers) [Compound 423] | 0.041 | 0.444 | 5.3 | 7 | 0.0526 | – | – | – | – | – |
| COC(=O)N[C@H](C(=O)N1CCC[C@H]1c1ncc(-c2cc(F)c3c(c2)OC(c2cnc(C4CC4C)s2)n2c-3cc3cc(-c4cnc([C@@H]5CCCN5C(=O)[C@@H](NC(=O)OC)C(C)C)[nH]4)ccc32)[nH]1)C(C)C (mixture of isomers) [Compound 491] | 0.013 | 0.3 | 2.9 | 2.6 | 0.01 | – | – | – | – | – |
| CCC(CC)c1ncc(C2Oc3cc(-c4cnc([C@@H]5CCCN5C(=O)[C@@H](NC(=O)OC)C(C)C)[nH]4)cc(F)c3-c3cc4cc(-c5cnc([C@@H]6CCCN6C(=O)[C@@H](NC(=O)OC)C(C)C)[nH]5)ccc4n32)s1 (mixture of isomers) [Compound 524] | 0.105 | 0.183 | 3 | 2 | 0.008 | – | – | – | – | – |
| COC(=O)N[C@H](C(=O)N1CCC[C@H]1c1ncc(-c2cc(F)c3c(c2)OC(c2cncs2)n2c-3cc3cc(-c4cnc([C@@H]5CCCN5C(=O)[C@@H](NC(=O)OC)C(C)C)[nH]4)ccc32)[nH]1)C(C)C (single isomer, unassigned) [Compound 2] | – | 38.3 | 3.5 | 30 | 6.95 | 2.31 | – | – | – | – |
| COC(=O)N[C@H](C(=O)N1CCC[C@H]1c1ncc(-c2cc(F)c3c(c2)OC(c2cnns2)n2c-3cc3cc(-c4cnc([C@@H]5CCCN5C(=O)[C@@H](NC(=O)OC)C(C)C)[nH]4)ccc32)[nH]1)C(C)C (single isomer, unassigned) [Compound 3] | – | 1.05 | 1.5 | 2 | – | 0.14 | 0.048 | – | – | – |
| COC(=O)N[C@H](C(=O)N1CCC[C@H]1c1ncc(-c2cc(F)c3c(c2)OC(c2cnc(C4CC4)s2)n2c-3cc3cc(-c4cnc([C@@H]5CCCN5C(=O)[C@@H](NC(=O)OC)C(C)C)[nH]4)ccc32)[nH]1)C(C)C (single isomer, unassigned) [Compound 10] | – | 0.097 | – | 2 | – | 0.011 | 0.0035 | 1.4 | – | – |
| COC(=O)N[C@H](C(=O)N1CCC[C@H]1c1ncc(-c2cc(F)c3c(c2)OC(c2cnc(OC)s2)n2c-3cc3cc(-c4cnc([C@@H]5CCCN5C(=O)[C@@H](NC(=O)OC)C(C)C)[nH]4)ccc32)[nH]1)C(C)C (single isomer, unassigned) [Compound 14] | – | 0.115 | – | 2 | – | 0.015 | 0.0034 | 1.4 | – | – |
| COC(=O)N[C@H](C(=O)N1CCC[C@H]1c1ncc(-c2cc(F)c3c(c2)OC(c2cnc(C(F)F)s2)n2c-3cc3cc(-c4cnc([C@@H]5CCCN5C(=O)[C@@H](NC(=O)OC)C(C)C)[nH]4)ccc32)[nH]1)C(C)C (single isomer, unassigned) [Compound 20] | – | 0.01 | 1.5 | 1 | – | 0.008 | 0.0083 | – | – | – |
| COC(=O)N[C@H](C(=O)N1CCC[C@H]1c1ncc(-c2cc(F)c3c(c2)OC(c2cnc(C4CCCC4)s2)n2c-3cc3cc(-c4cnc([C@@H]5CCCN5C(=O)[C@@H](NC(=O)OC)C(C)C)[nH]4)ccc32)[nH]1)C(C)C (single isomer, unassigned) [Compound 25] | – | 0.07 | 2.5 | 1 | – | 0.014 | 0.0025 | – | – | – |
| COC(=O)NC(C(=O)N1[C@@H]2C[C@@H]2C[C@H]1c1ncc(-c2ccc3c(c2)cc2n3C(c3cnc(C4CC4)s3)Oc3cc(-c4cnc([C@@H]5CCCN5C(=O)[C@@H](NC(=O)OC)C(C)C)[nH]4)cc(F)c3-2)[nH]1)C(C)(C)F (single isomer, unassigned) [Compound 27] | – | – | 1.6 | 2 | – | 0.009 | 0.0037 | – | 0.02 | – |
| COC(=O)NC(C(=O)N1[C@@H]2C[C@@H]2C[C@H]1c1ncc(-c2ccc3c(c2)cc2n3C(c3cnc(C4CC4)s3)Oc3cc(-c4cnc([C@@H]5CCCN5C(=O)[C@@H](NC(=O)OC)C(C)C)[nH]4)cc(F)c3-2)[nH]1)C(C)(C)F (single isomer, unassigned) [Compound 28] | – | – | – | – | – | 0.204 | 0.115 | 1.2 | 0.908 | 2 |
| COC(=O)NC(C(=O)N1CCC[C@H]1c1ncc(-c2ccc3c(c2)cc2n3C(c3cnc(C)s3)Oc3cc(-c4cnc([C@@H]5CCCN5C(=O)[C@@H](NC(=O)OC)C(C)C)[nH]4)cc(F)c3-2)[nH]1)C1C[C@@H](C)O[C@@H](C)C1 (single isomer, unassigned) [Compound 30] | – | 0.112 | – | 3 | – | 0.014 | 0.0118 | 2.8 | – | – |
| COC(=O)N[C@H](C(=O)N1CCC[C@H]1c1ncc(-c2cc(F)c3c(c2)OC(c2cnc(-c4ccc(F)cc4)s2)n2c-3cc3cc(-c4cnc([C@@H]5CCCN5C(=O)[C@@H](NC(=O)OC)C(C)C)[nH]4)ccc32)[nH]1)C(C)C (single isomer, unassigned) [Compound 31] | – | 0.046 | 1.2 | 1 | – | 0.004 | 0.0063 | – | – | – |
| COC(=O)N[C@H](C(=O)N1CCC[C@H]1c1ncc(-c2cc(F)c3c(c2)OC(c2ncc(-c4ccc(F)cc4)s2)n2c-3cc3cc(-c4cnc([C@@H]5CCCN5C(=O)[C@@H](NC(=O)OC)C(C)C)[nH]4)ccc32)[nH]1)C(C)C (single isomer, unassigned) [Compound 33] | – | – | 1.7 | 1 | – | 0.746 | 1.18 | – | 1.67 | – |
| COC(=O)N[C@H](C(=O)N1CCC[C@H]1c1ncc(-c2cc(F)c3c(c2)OC(c2ncc(-c4ccc(F)cc4)s2)n2c-3cc3cc(-c4cnc([C@@H]5CCCN5C(=O)[C@@H](NC(=O)OC)C(C)C)[nH]4)ccc32)[nH]1)C(C)C (single isomer, unassigned) [Compound 34] | – | – | – | – | – | 0.022 | 0.0331 | 2.2 | 0.144 | 1 |
| CCc1ncc(C2Oc3cc(-c4cnc([C@@H]5CCCN5C(=O)[C@@H](NC(=O)OC)C(C)C)[nH]4)cc(F)c3-c3cc4cc(-c5cnc([C@@H]6CCCN6C(=O)C(NC(=O)OC)C6C[C@@H](C)O[C@@H](C)C6)[nH]5)ccc4n32)s1 (single isomer, unassigned) [Compound 36] | – | 0.038 | – | 3 | – | 0.005 | 0.004 | 2.5 | – | – |
| CCc1ncc(C2Oc3cc(-c4cnc([C@@H]5CCCN5C(=O)[C@@H](NC(=O)OC)C(C)C)[nH]4)cc(F)c3-c3cc4cc(-c5cnc([C@@H]6CCCN6C(=O)C(NC(=O)OC)C6CCOC(C)(C)C6)[nH]5)ccc4n32)s1 (single isomer, unassigned) [Compound 40] | – | 0.03 | – | 3 | – | 0.006 | 0.0039 | 3.5 | – | – |
| COC(=O)N[C@H](C(=O)N1CCC[C@H]1c1ncc(-c2cc(F)c3c(c2)OC(c2cnc(C4CC4)s2)n2c-3c(F)c3cc(-c4cnc([C@@H]5CCCN5C(=O)[C@@H](NC(=O)OC)C5CCOCC5)[nH]4)ccc32)[nH]1)C(C)C (single isomer, unassigned) [Compound 41] | – | – | 1.7 | 2 | – | 0.04 | 0.126 | – | 1.01 | – |
| COC(=O)N[C@H](C(=O)N1CCC[C@H]1c1ncc(-c2cc(F)c3c(c2)OC(c2cnc(C4CC4)s2)n2c-3c(F)c3cc(-c4cnc([C@@H]5CCCN5C(=O)[C@@H](NC(=O)OC)C5CCOCC5)[nH]4)ccc32)[nH]1)C(C)C (single isomer, unassigned) [Compound 42] | – | – | – | – | – | 0.017 | 0.0141 | 1.6 | 0.123 | 2 |
| COC(=O)N[C@H](C(=O)N1CCC[C@H]1c1ncc(-c2cc(F)c3c(c2)OC(c2ncc(-c4ccc(C#N)cc4)s2)n2c-3cc3cc(-c4cnc([C@@H]5CCCN5C(=O)[C@@H](NC(=O)OC)C(C)C)[nH]4)ccc32)[nH]1)C(C)C (single isomer, unassigned) [Compound 43] | – | – | 2.3 | 2 | – | 0.004 | 0.0081 | – | 0.077 | – |
